Test results reported in article PMC7608467 (Acta Pharmacologica Sinica, 2020).

Key:
[1] = molecular target: human relaxin/insulin-like family peptide receptor 4 (RXFP4) on CHO-K1 cells (human) (UniProt Q8TDU9)
[2] = molecular target: T1, human RXFP4 (hRXFP4) (Homo sapiens, UniProt Q8TDU9); experiment: inhibition of forskolin-stimulated cAMP accumulation, TR-FRET; format: cell-based; settings: agonist; 500 nM forskolin, 500 uM IBMX, 40 min, RT
[3] = molecular target: T2, mouse RXFP4 (mRXFP4) (Mus musculus, UniProt Q7TQP4); experiment: as above; format: cell-based; settings: agonist; 500 nM forskolin, 500 uM IBMX, 40 min, RT
T2 sequence (Q7TQP4 1-414): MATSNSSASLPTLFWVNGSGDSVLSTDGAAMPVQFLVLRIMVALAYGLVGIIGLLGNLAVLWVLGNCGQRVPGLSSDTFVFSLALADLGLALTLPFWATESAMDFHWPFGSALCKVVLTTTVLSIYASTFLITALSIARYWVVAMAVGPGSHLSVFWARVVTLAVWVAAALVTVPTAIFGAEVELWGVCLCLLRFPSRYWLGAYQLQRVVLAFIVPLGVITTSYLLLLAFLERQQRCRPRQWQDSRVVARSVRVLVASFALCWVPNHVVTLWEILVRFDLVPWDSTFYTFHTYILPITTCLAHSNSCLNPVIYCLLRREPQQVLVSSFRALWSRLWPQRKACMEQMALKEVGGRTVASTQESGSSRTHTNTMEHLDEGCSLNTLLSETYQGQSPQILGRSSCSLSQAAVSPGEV

[4] = molecular target: T1, human RXFP4 (hRXFP4); experiment: Eu-mINSL5 competition binding, time-resolved fluorescence, CHO-RXFP4 cells; format: cell-based; settings: n = 3; one-site fit; competitive with Eu-labelled INSL5

T1 sequence (Q8TDU9 whole entry): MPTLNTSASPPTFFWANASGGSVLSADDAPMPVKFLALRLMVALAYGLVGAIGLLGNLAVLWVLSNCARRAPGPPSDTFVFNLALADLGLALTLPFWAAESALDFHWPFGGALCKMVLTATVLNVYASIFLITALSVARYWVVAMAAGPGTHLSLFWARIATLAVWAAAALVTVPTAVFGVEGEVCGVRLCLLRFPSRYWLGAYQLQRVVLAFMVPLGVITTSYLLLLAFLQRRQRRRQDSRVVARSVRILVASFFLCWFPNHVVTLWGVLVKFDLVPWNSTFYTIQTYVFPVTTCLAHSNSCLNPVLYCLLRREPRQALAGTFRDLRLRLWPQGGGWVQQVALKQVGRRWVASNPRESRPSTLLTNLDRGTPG
Chain of human relaxin/insulin-like family peptide receptor 4 (RXFP4) on CHO-K1 cells (human) (Q8TDU9 whole entry): as above
Chain of Human INSL5 (insulin-like peptide 5) (ligand) (Q9Y5Q6 23-135): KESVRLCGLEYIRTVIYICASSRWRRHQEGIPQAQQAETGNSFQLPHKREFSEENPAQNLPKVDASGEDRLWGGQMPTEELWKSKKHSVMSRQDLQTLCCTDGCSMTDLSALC

Compound	pEC50, inhibition of forskolin-stimulated cAMP production in hRXFP4-CHO cells [1]	pEC50 [2]	pEC50 [3]	pKi [4]
R3/I5 (ligand)	7.52			
O=C1CCCC2=C1[C@H](c1ccc(O)cc1)n1nc(-c3ccccc3Cl)nc1N2 [JK1]		4.76 ± 0.04 -log M	4.60 ± 0.07 -log M	4.48 ± 0.09 -log M
Human INSL5 (insulin-like peptide 5) (ligand)	8.12			
